# Like-named read-outs stand apart in the source and are kept apart here.
# Tests used:
# D2 dopamine receptor = target: T1, D2 dopamine receptor (Rattus norvegicus, UniProt P61169); assay: Inhibition of [^125 I]NCQ298 binding to D2 dopamine receptors expressed in Sf9 cells; conditions: for HC D2: Table 4, Hill coefficient
# T1 construct: made in house; host or cells: Sf9 insect cells infected with recombinant baculovirus (AcMNPVrD2L or AcMNPVrD2S), membrane homogenates
# D3 dopamine receptor = target: T2, D3 dopamine receptor (Rattus norvegicus, UniProt P19020); assay: Inhibition of [^125 I]NCQ298 binding to D3 dopamine receptors expressed in Sf9 cells; conditions: for HC D3: Table 4, Hill coefficient; for Ratio D2/D3: Ki(D2)/Ki(D3)
# T2 construct: made in house; host or cells: Sf9 insect cells infected with recombinant baculovirus AcMNPVrD3, membrane homogenates
# Experimental: The construction of pVL1393-rD3 was previously described. […] An aliquot of membranes was used for radioligand binding.
# Membranes from AcMNPV-rD3 infected Sf9 cells were prepared. […] Assays were incubated at 37° C. for 20 min. then filtered and washed as described above.
# [1] = In-vivo biodistribution in rats; set-up: species or system rat; Brain uptake: unit not given here; conditions: for Brain uptake: table; for tissue uptake at 2 min / tissue uptake at 0.5 h / tissue uptake at 1 h: rat
# Experimental: In-vivo biodistribution studies were performed in rats^27 with the two hydroxylated radioligands: [^123 I]-7-OH-DPAT and [^123 I]-7-OH-PIPAT in rats. Concerning [^123 I]-7-OH-DPAT rats were killed either two minutes or thirty minutes post injection and the data are reported in Table 5. […] On the contrary, [^123 I]-7-OH-PIPAT presented a very high brain uptake: 11.812, 9,458 and 5.433% dose/gram of tissue at 2, 30 and 60 min. respectively (See Table 6). […] However, the brain regions, rich in D3 receptors such as Calleja island and olfactory tubercle need to be more deeply investigated.
# [2] = Table 4 and its discussion, [^125 I]-NCQ298 0.05 nM, 37° C., 20 min, read-out: Ki D2
# T1 sequence (P61169 whole entry): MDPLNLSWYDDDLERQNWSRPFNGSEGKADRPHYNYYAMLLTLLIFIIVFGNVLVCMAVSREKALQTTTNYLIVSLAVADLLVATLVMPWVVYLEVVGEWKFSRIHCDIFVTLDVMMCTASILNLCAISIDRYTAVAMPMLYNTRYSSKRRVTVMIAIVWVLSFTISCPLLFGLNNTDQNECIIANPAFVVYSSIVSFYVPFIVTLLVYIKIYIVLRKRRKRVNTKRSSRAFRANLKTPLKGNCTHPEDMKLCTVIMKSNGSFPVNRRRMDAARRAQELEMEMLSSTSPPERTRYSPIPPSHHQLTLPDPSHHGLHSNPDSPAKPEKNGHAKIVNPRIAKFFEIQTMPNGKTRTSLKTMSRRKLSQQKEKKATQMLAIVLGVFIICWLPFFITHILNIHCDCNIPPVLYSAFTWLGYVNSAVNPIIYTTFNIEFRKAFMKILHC
# T2 sequence (P19020 whole entry): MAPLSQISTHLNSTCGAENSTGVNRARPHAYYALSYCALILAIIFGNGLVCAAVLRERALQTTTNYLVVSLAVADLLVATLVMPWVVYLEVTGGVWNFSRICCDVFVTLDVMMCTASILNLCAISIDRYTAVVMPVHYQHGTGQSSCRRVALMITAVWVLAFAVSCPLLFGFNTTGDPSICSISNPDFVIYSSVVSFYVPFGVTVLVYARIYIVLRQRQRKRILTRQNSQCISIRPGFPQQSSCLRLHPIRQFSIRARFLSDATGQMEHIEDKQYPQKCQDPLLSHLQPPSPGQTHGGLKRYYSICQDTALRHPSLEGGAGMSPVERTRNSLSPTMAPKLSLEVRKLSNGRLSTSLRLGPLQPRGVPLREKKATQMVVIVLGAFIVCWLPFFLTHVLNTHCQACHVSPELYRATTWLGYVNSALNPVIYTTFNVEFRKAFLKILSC
compound,measurement,setting,value
"CCCNC1CCc2ccc(OC)cc2C1 (stereo not drawn) [7-MeO-MPAT, 7Methoxy-2-N-n-Propylaminotetralin]",Ki,D2 dopamine receptor,5176 ± 0.96 nM
same,HC D2,D2 dopamine receptor,0.96
same,Ki,D3 dopamine receptor,1310 ± 249 nM
same,HC D3,D3 dopamine receptor,0.97
same,Ratio D2/D3,D3 dopamine receptor; Table 4 and its discussion,4.0
CCCN(C/C=C/I)C1CCc2ccc(O)cc2C1 (stereo not drawn) [trans-7-OH-PIPAT],Ki,"D2 dopamine receptor; Table 2, ± SE, [^125 I]NCQ298, Sf9 cells, read-out: Ki D2",265 ± 36 nM
same,HC D2,D2 dopamine receptor,0.96
same,Ki,D2 dopamine receptor; [2],265 ± 48 nM
"CCCN(CCC)C1CCc2ccc(O)c(I)c2C1 (stereo not drawn) [8-I-7-OH-DPAT, 7Hydroxy-8-Iodo-2-N,N-n-Dipropylaminotetralin]",HC D2,D2 dopamine receptor,0.92
same,Ki,D2 dopamine receptor; [2],353 ± 31 nM
same,Ki,D3 dopamine receptor,21.3 ± 2.9 nM
same,HC D3,D3 dopamine receptor,0.85
same,Ratio D2/D3,D3 dopamine receptor; Table 4 and its discussion,16.6
"CCCN(CCC)C1CCc2ccc(O)c([123I])c2C1 (stereo not drawn) [[^123 I]-7-OH-DPAT, reference compound]",Brain uptake,[1]; 2 min,1.55 ± 0.21
same,Brain uptake,[1]; 30 min,0.54 ± 0.13
same,tissue uptake at 2 min,"[1]; in vivo, 2 min, read-out: Regional uptake, Cerebellum",0.81 ± 0.14 %ID/g
same,tissue uptake at 2 min,"[1]; in vivo, 2 min, read-out: Regional uptake, Cortex",1.1 ± 0.12 %ID/g
same,tissue uptake at 2 min,"[1]; in vivo, 2 min, read-out: Regional uptake, Hippocampus",0.78 ± 0.09 %ID/g
same,tissue uptake at 2 min,"[1]; in vivo, 2 min, read-out: Regional uptake, Striatum",0.85 ± 0.07 %ID/g
same,tissue uptake at 0.5 h,"[1]; in vivo, 30 min, read-out: Regional uptake, Cerebellum",0.25 ± 0.09 %ID/g
same,tissue uptake at 0.5 h,"[1]; in vivo, 30 min, read-out: Regional uptake, Cortex",0.29 ± 0.12 %ID/g
same,tissue uptake at 0.5 h,"[1]; in vivo, 30 min, read-out: Regional uptake, Hippocampus",0.31 ± 0.07 %ID/g
same,tissue uptake at 0.5 h,"[1]; in vivo, 30 min, read-out: Regional uptake, Striatum",0.31 ± 0.08 %ID/g
same,brain washout,"[1]; rats, brain",rapidly washed out of the brain
same,regional uptake in the different area of the brain,"[1]; rats, brain",no regional uptake was observed
CCCN(C/C=C/[123I])C1CCc2ccc(O)cc2C1 (stereo not drawn) [[^123 I]-7-OH-PIPAT],Blood uptake,[1]; 2 min,2.621 ± 0.298
same,Heart uptake,[1]; 2 min,1.780 ± 0.231
same,Kidney uptake,[1]; 2 min,5.887 ± 1.088
same,Liver uptake,[1]; 2 min,9.687 ± 3.302
same,Lung uptake,[1]; 2 min,5.394 ± 0.589
same,Muscle uptake,[1]; 2 min,33.199 ± 11.64
same,Skin uptake,[1]; 2 min,8.816 ± 1.656
same,Spleen uptake,[1]; 2 min,0.449 ± 0.161
same,Thyroid uptake,[1]; 2 min,0.174 ± 0.012
same,Brain uptake,[1]; 2 min,2.612 ± 0.498
same,Blood uptake,[1]; 30 min,0.785 ± 0.089
same,Heart uptake,[1]; 30 min,0.203 ± 0.054
same,Kidney uptake,[1]; 30 min,0.978 ± 0.276
same,Liver uptake,[1]; 30 min,3.573 ± 0.569
same,Lung uptake,[1]; 30 min,0.768 ± 0.146
same,Muscle uptake,[1]; 30 min,23.546 ± 8.469
same,Skin uptake,[1]; 30 min,6.962 ± 0.362
same,Spleen uptake,[1]; 30 min,0.284 ± 0.011
same,Thyroid uptake,[1]; 30 min,0.045 ± 0.007
same,Brain uptake,[1]; 30 min,0.660 ± 0.096
same,Blood uptake,[1]; 60 min,0.742 ± 0.075
same,Heart uptake,[1]; 60 min,0.100 ± 0.010
same,Kidney uptake,[1]; 60 min,1.042 ± 0.114
same,Liver uptake,[1]; 60 min,2.335 ± 1.391
same,Lung uptake,[1]; 60 min,0.437 ± 0.038
same,Muscle uptake,[1]; 60 min,12.882 ± 3.927
same,Skin uptake,[1]; 60 min,6.148 ± 0.922
same,Spleen uptake,[1]; 60 min,0.180 ± 0.023
same,Thyroid uptake,[1]; 60 min,0.096 ± 0.067
same,Brain uptake,[1]; 60 min,0.321 ± 0.037
same,tissue uptake at 2 min,"[1]; brain, 2 min, read-out: brain uptake",11.8 %ID/g
same,tissue uptake at 1 h,"[1]; brain, 60 min, read-out: brain uptake",5.43 %ID/g
same,tissue uptake at 2 min,"[1]; cerebellum, 2 min, read-out: Regional uptake, Cerebellum",1.61 ± 0.403 %ID/g
same,tissue uptake at 0.5 h,"[1]; cerebellum, 30 min, read-out: Regional uptake, Cerebellum",0.379 ± 0.009 %ID/g
same,tissue uptake at 1 h,"[1]; cerebellum, 60 min, read-out: Regional uptake, Cerebellum",0.215 ± 0.025 %ID/g
same,tissue uptake at 2 min,"[1]; cortex, 2 min, read-out: Regional uptake, Cortex",2 ± 0.038 %ID/g
same,tissue uptake at 0.5 h,"[1]; cortex, 30 min, read-out: Regional uptake, Cortex",0.265 ± 0.086 %ID/g
same,tissue uptake at 1 h,"[1]; cortex, 60 min, read-out: Regional uptake, Cortex",0.206 ± 0.022 %ID/g
same,tissue uptake at 2 min,"[1]; hippocampus, 2 min, read-out: Regional uptake, Hippocampus",1.63 ± 0.222 %ID/g
same,tissue uptake at 0.5 h,"[1]; hippocampus, 30 min, read-out: Regional uptake, Hippocampus",0.261 ± 0.064 %ID/g
same,tissue uptake at 1 h,"[1]; hippocampus, 60 min, read-out: Regional uptake, Hippocampus",0.216 ± 0.02 %ID/g
same,tissue uptake at 2 min,"[1]; hypothalamus, 2 min, read-out: Regional uptake, Hypothalamus",1.83 ± 0.233 %ID/g
same,tissue uptake at 0.5 h,"[1]; hypothalamus, 30 min, read-out: Regional uptake, Hypothalamus",0.251 ± 0.009 %ID/g
same,tissue uptake at 1 h,"[1]; hypothalamus, 60 min, read-out: Regional uptake, Hypothalamus",0.254 ± 0.033 %ID/g
same,tissue uptake at 2 min,"[1]; rem, 2 min, read-out: Regional uptake, REM",1.67 ± 0.224 %ID/g
same,tissue uptake at 0.5 h,"[1]; rem, 30 min, read-out: Regional uptake, REM",0.281 ± 0.076 %ID/g
same,tissue uptake at 1 h,"[1]; rem, 60 min, read-out: Regional uptake, REM",0.218 ± 0.025 %ID/g
same,tissue uptake at 2 min,"[1]; striatum, 2 min, read-out: Regional uptake, Striatum",1.62 ± 0.236 %ID/g
same,tissue uptake at 0.5 h,"[1]; striatum, 30 min, read-out: Regional uptake, Striatum",0.263 ± 0.08 %ID/g
same,tissue uptake at 1 h,"[1]; striatum, 60 min, read-out: Regional uptake, Striatum",0.212 ± 0.029 %ID/g
same,regional uptake in the different area of the brain,"[1]; rats, brain",no regional uptake was observed
"COc1ccc2c(c1)CC(NCc1ccccc1)CC2 (stereo not drawn) [7-MeO-BAT, 7Methoxy-2-N-Benzylaminotetralin]",HC D2,D2 dopamine receptor,0.78
same,Ki,D2 dopamine receptor; [2],5880 ± 471 nM
same,HC D3,D3 dopamine receptor,0.80
same,Ratio D2/D3,D3 dopamine receptor; Table 4 and its discussion,3.1
same,Ki,"D3 dopamine receptor; Table 4 and its discussion, [^125 I]-NCQ298 0.1 nM, 37° C., 20 min, read-out: Ki D3",1870 ± 224 nM
"CCCNC1CCc2ccc(O)cc2C1 (stereo not drawn) [7-OH-MPAT, 7Hydroxy-2-N-n-Propylaminotetralin]",HC D2,D2 dopamine receptor,0.80
same,Ki,D2 dopamine receptor; [2],620 ± 124 nM
same,Ki,D3 dopamine receptor,3.25 ± 0.45 nM
same,affinity / selectivity for the D3 receptor,D3 dopamine receptor,comparative affinity as 7-OH-DPAT for D3 receptors
same,HC D3,D3 dopamine receptor,0.80
same,Ratio D2/D3,D3 dopamine receptor; Table 4 and its discussion,191
